Laboratory results from US20010034357A1, “Substituted pyridine compounds useful for controlling chemical synaptic transmission” (priority 2000, published 2001).
Like-named read-outs stand apart in the source and are kept apart here.

Assays:
[1] = biological target: T1, neuronal nicotinic acetylcholine receptors (Rattus norvegicus, UniProt P09483+P12390); test: [3H]-cytisine binding to neuronal nicotinic acetylcholine receptors, crude synaptic membranes from whole rat brain
T1 construct: crude synaptic membrane preparations from whole rat brain; from tissue; host or cells: whole rat brain, crude synaptic membranes
T1 sequence (P09483 31-630): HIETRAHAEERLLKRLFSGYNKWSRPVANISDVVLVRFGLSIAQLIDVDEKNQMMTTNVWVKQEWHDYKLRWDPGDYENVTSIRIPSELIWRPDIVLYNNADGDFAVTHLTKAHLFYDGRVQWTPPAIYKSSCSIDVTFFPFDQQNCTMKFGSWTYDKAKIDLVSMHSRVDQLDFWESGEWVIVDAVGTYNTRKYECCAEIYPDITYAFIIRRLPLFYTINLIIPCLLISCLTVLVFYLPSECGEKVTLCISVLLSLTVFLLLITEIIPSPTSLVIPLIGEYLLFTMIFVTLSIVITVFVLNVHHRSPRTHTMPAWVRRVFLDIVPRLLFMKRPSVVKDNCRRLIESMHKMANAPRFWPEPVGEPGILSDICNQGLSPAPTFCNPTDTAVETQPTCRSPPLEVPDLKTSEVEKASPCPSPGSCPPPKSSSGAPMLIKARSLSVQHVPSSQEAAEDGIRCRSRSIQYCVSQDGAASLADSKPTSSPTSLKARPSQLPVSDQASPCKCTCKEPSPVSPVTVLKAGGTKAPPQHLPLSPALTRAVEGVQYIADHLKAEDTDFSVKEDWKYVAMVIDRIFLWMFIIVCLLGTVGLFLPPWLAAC
T1 sequence (P12390 25-500): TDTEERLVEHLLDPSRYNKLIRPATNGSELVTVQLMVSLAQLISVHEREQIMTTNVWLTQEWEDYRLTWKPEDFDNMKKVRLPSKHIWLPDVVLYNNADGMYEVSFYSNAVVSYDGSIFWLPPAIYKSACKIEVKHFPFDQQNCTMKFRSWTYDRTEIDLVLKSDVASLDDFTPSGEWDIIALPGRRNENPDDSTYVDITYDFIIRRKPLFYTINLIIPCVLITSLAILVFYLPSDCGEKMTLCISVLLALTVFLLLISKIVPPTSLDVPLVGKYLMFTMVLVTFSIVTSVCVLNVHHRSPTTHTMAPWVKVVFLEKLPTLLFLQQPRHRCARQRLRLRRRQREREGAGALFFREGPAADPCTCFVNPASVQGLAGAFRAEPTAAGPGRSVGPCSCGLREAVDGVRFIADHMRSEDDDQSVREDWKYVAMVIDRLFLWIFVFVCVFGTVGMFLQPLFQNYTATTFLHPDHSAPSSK
Experimental: The in vitro protocols for determination of nicotinic acetylcholine channel receptor binding potencies of ligands was determined as follows.
Binding of [^3H]-cytisine ([^3H]-CYT) to neuronal nicotinic acetylcholine receptors was accomplished using crude synaptic membrane preparations from whole rat brain (Pabreza et al., Molecular Pharmacol., 1990, 39:9). Washed membranes were stored at −80° C. prior to use. Frozen aliquots were slowly thawed and resuspended in 20 volumes of buffer (containing: 120 mM NaCl, 5 mM KCl, 2 mM MgCl2, 2 mM CaCl2 and 50 mM Tris-Cl, pH 7.4 @4° C.). After centrifuging at 20,000×g for 15 minutes, the pellets were resuspended in 30 volumes of buffer.
The test compounds were dissolved in water to make 10 mM stock solutions. Each solution was then diluted (1:100) with buffer (as above) and further taken through seven serial log dilutions to produce test solutions from 10^−5 to 10^−11 M.
Homogenate (containing 125-150 µg protein) was added to triplicate tubes containing the range of concentrations of test compound described above and [^3H]-CYT (1.25 nM) in a final volume of 500 μL. Samples were incubated for 60 minutes at 4° C., then rapidly filtered through Whatman GF/B filters presoaked in 0.5% polyethyleneimine using 3×4 mL of ice-cold buffer. The filters are counted in 4 mL of Ecolume® (ICN). Nonspecific binding was determined in the presence of 10 μM (−)-nicotine and values were expressed as a percentage of total binding. IC50 values were determined with a four-parameter non-linear regression and IC50 values were converted to K1 values using the Cheng and Prusoff correction (K1=IC50/(1+[ligand]/Kd of ligand).
Each Example number corresponds to the synthetic Examples described above. […] The lower the Ki value, the more affinity for neuronal nicotinic acetylcholine receptors.

mouse hot plate paradigm = mouse hot plate paradigm (analgesia, latency until tenth jump); assay type: in vivo; conditions: mice, intraperitoneal, dosed 30 minutes prior to testing, hot plate 55° C.; for Analgesic MED (μmol/kg): footnote symbols for no effect; for Analgesic MED: minimally effective dose among the doses tested
Experimental: An in vivo protocol was utilized to determine the effectiveness of nicotinic acetylcholine receptor ligands as analgesic agents in the mouse hot plate paradigm.
Separate groups of mice, (n=8/group) were utilized for each dose group. All drugs were administered by the intraperitoneal route of administration. Test drugs were dissolved in water to make a 6.2 mM stock solution. Animals were dosed with this solution (10 mL/kg body weight) for a 62 micromol/kg dose. Lower doses were administered similarly, following serial dilution of the stock solution in half-log increments. Animals were dosed 30 minutes prior to testing in the hot plate. The hot-plate utilized was an automated analgesia monitor (Model #AHP16AN, Omnitech Electronics, Inc. of Columbus, Ohio). The temperature of the hot plate was maintained at 55° C. and a cut-off time of 180 seconds was utilized. A control was run against each compound tested. Latency until the tenth jump was recorded as the dependent measure. An increase in the tenth jump latency relative to the control was considered a significant effect.

[2] = [3H]-CYT 1.25 nM, whole rat brain membranes, 60 minutes at 4° C., Cheng and Prusoff correction, Table 1, read-out: Ki
[3] = [3H]-CYT 1.25 nM, whole rat brain membranes, 60 minutes at 4° C., Cheng and Prusoff correction, Table 2, read-out: K1 (nm)

Compound | Ki [1, 2] [nM] | further results
5-[(R)-2-methylamino-1-propyloxy]-2-chloro-3-(4-vinylpyridinyl) pyridine p-toluenesulfonic acid [Example 40] | 0.0757 | –
5-[(S)-2-amino-1-butyloxy]-2-chloro-3-(4-vinylpyridinyl) pyridine di-p-toluenesulfonic acid [Example 19] | 0.18 | –
5-[(S)-2-amino-3-phenyl-1-propyloxy]-2-chloro-3-(4-vinylpyridinyl) pyridine di-p-toluenesulfonic acid [Example 23] | 9.89 | Analgesic MED (μmol/kg) (mouse hot plate paradigm): * (no effect at 62)
5-[(S)-2-methylamino-3-phenyl-1-propyloxy]-2-chloro-3-(4-vinylpyridinyl) pyridine di-p-toluenesulfonic acid [Example 25] | 2.61 | –
CC(N)COc1ccc(Cl)nc1 (stereo in doubt) [Example 26, 5-[(S)-2-amino-1-propyloxy]-2-chloro pyridine p-toluenesulfonic acid] | – | Ki ([1]; Ki (nM)): 5.34 nM; Analgesic MED (mouse hot plate paradigm): 62 µmol/kg
CC(COc1ccc(Cl)nc1)N(C)C (stereo in doubt) [Example 27, 5-[(S)-2-dimethylamino-1-propyloxy]-2-chloro pyridine p-toluenesulfonic acid] | – | Analgesic MED (μmol/kg) (mouse hot plate paradigm): * (no effect at 62)
C[C@H](N)COc1ccc(Cl)nc1.Cc1ccc(S(=O)(=O)O)cc1 [Example 1, 5-[(S)-2-amino-1-propyloxy]-2-chloro pyridine p-toluenesulfonic acid] | 4.51 | Analgesic MED (mouse hot plate paradigm): 62 µmol/kg
C[C@@H](COc1ccc(Cl)nc1)N(C)C.Cc1ccc(S(=O)(=O)O)cc1 [Example 2, 5-[(S)-2-dimethylamino-1-propyloxy]-2-chloro pyridine p-toluenesulfonic acid] | – | Analgesic MED (mouse hot plate paradigm): 62 µmol/kg
CN[C@@H](C)COc1ccc(Cl)nc1.Cc1ccc(S(=O)(=O)O)cc1 [Example 3, 5-[(S)-2-methylamino-1-propyloxy]-2-chloro pyridine p-toluenesulfonic acid] | 40.6 | Analgesic MED (mouse hot plate paradigm): 62 µmol/kg
C[C@H](N)COc1ccc(F)nc1.Cc1ccc(S(=O)(=O)O)cc1 [Example 4, 5-[(S)-2-amino-1-propyloxy]-2-fluoro pyridine p-toluenesulfonic acid] | 8.69 | Analgesic MED (mouse hot plate paradigm): 6.2 µmol/kg
C[C@@H](COc1ccc(F)nc1)N(C)C.Cc1ccc(S(=O)(=O)O)cc1 [Example 5, 5-[(S)-2-dimethylamino-1-propyloxy]-2-fluoro pyridine p-toluenesulfonic acid] | 100 | Analgesic MED (μmol/kg) (mouse hot plate paradigm): * (no effect at 62)
CN[C@@H](C)COc1ccc(F)nc1.Cc1ccc(S(=O)(=O)O)cc1 [Example 6, 5-[(S)-2-methylamino-1-propyloxy]-2-fluoro pyridine p-toluenesulfonic acid] | 68.9 | Analgesic MED (μmol/kg) (mouse hot plate paradigm): * (no effect at 62)
C[C@H](N)COc1cnc(Cl)c(Br)c1.Cc1ccc(S(=O)(=O)O)cc1 [Example 7, 5-[(S)-2-amino-1-propyloxy]-2-chloro-3-bromo pyridine p-toluenesulfonic acid] | 1.55 | Analgesic MED (μmol/kg) (mouse hot plate paradigm): * (no effect at 62)
C[C@@H](COc1cnc(Cl)c(Br)c1)N(C)C.Cc1ccc(S(=O)(=O)O)cc1 [Example 8, 5-[(S)-2-dimethylamino-1-propyloxy]-2-chloro-3-bromo pyridine p-toluenesulfonic acid] | 30.8 | Analgesic MED (mouse hot plate paradigm): 62 µmol/kg
CN[C@@H](C)COc1cnc(Cl)c(Br)c1.Cc1ccc(S(=O)(=O)O)cc1 [Example 9, 5-[(S)-2-methylamino-1-propyloxy]-2-chloro-3-bromo pyridine p-toluenesulfonic acid] | 10.9 | Analgesic MED (μmol/kg) (mouse hot plate paradigm): ** (no effect at 6.2)
Cc1cc(OC[C@H](C)N)cnc1Cl.Cc1ccc(S(=O)(=O)O)cc1 [Example 10, 5-[(S)-2-amino-1-propyloxy]-2-chloro-3-methyl pyridine p-toluenesulfonic acid] | 0.525 | Analgesic MED (mouse hot plate paradigm): 62 µmol/kg
Cc1cc(OC[C@H](C)N(C)C)cnc1Cl.Cc1ccc(S(=O)(=O)O)cc1 [Example 11, 5-[(S)-2-dimethylamino-1-propyloxy]-2-chloro-3-methyl pyridine p-toluenesulfonic acid] | 9.6 | Analgesic MED (μmol/kg) (mouse hot plate paradigm): * (no effect at 62)

Compound | Ki [1, 2] [nM] | further results
CN[C@@H](C)COc1cnc(Cl)c(C)c1.Cc1ccc(S(=O)(=O)O)cc1 [Example 12, 5-[(S)-2-methylamino-1-propyloxy]-2-chloro-3-methyl pyridine p-toluenesulfonic acid] | 5.47 | Analgesic MED (mouse hot plate paradigm): 62 µmol/kg
C[C@H](N)COc1cnc(Cl)c(C=Cc2ccncc2)c1.Cc1ccc(S(=O)(=O)O)cc1 [Example 13, 5-[(S)-2-amino-1-propyloxy]-2-chloro-3-(4-vinylpyridinyl) pyridine p-toluenesulfonic acid] | 0.0761 | Analgesic MED (μmol/kg) (mouse hot plate paradigm): * (no effect at 62)
CC[C@H](N)COc1ccc(F)nc1 [Example 16, 5-[(S)-2-amino-1-butyloxy]-2-fluoro pyridine p-toluenesulfonic acid] | 39.5 | –
CC[C@@H](COc1ccc(F)nc1)NC [Example 17, 5-[(S)-2-methylamino-1-butyloxy]-2-fluoro pyridine p-toluenesulfonic acid] | 225 | –
N[C@H](COc1cnc(Cl)c(Br)c1)Cc1ccccc1 [Example 21, 5-[(S)-2-amino-3-phenyl-1-propyloxy]-2-chloro-3-bromo pyridine p-toluenesulfonic acid] | 102 | –
CN(C)[C@H](COc1cnc(Cl)c(Br)c1)Cc1ccccc1 [Example 22, 5-[(S)-2-dimethylamino-3-phenyl-1-propyloxy]-2-chloro-3-bromo pyridine p-toluenesulfonic acid] | 319 | –
C[C@H](COc1cnc(Cl)c(Br)c1)N(C)C [Example 33, 5-[(R)-2-dimethylamino-1-propyloxy]-2-chloro-3-bromo pyridine p-toluenesulfonic acid] | 11.9 | –
C[C@@H](N)COc1cnc(Cl)c(C=Cc2ccncc2)c1 [Example 38, 5-[(R)-2-amino-1-propyloxy]-2-chloro-3-(4-vinylpyridinyl) pyridine p-toluenesulfonic acid] | 0.0809 | –
CCN[C@H](C)COc1ccc(Cl)nc1 [Example 41, 5-[(R)-2-ethylamino-1-propyloxy]-2-chloro pyridine p-toluenesulfonic acid] | 2310 | –
CCCN[C@H](C)COc1ccc(Cl)nc1 [Example 42, 5-[(R)-2-(1-propyl)amino-1-propyloxy]-2-chloro pyridine p-toluenesulfonic acid] | 7530 | –
CC(N)CCOc1ccc(F)nc1 (stereo not drawn) [Example 43, 5-(3-Amino-1-butyloxy)-2-fluoro pyridine p-toluenesulfonic acid] | – | Ki [1, 3]: 122 nM
CC(N)CCOc1ccc(Cl)nc1 (stereo not drawn) [Example 44, 5-(3-Amino-1-butyloxy)-2-chloropyridine p-toluenesulfonate] | – | Ki [1, 3]: 20 nM
CC(CCOc1ccc(Cl)nc1)N(C)C (stereo not drawn) [Example 45, 5-(3-Dimethylamino-1-butyloxy]-2-chloro pyridine p-toluenesulfonic acid] | – | Ki [1, 3]: 18 nM
CC(CCOc1cnc(Cl)c(Br)c1)N(C)C (stereo not drawn) [Example 46, 5-(3-Dimethylamino-1-butyloxy)-2-chloro-3-bromopyridine p-toluenesulfonic acid] | – | Ki [1, 3]: 3.1 nM
CC(N)CCOc1cnc(Cl)c(Br)c1 (stereo not drawn) [Example 47, 5-(3-Amino-1-butyloxy)-2-chloro-3-bromo-pyridine p-toluenesulfonic acid] | – | Ki [1, 3]: 31 nM
Cc1cc(OCCC(C)N(C)C)cnc1Cl (stereo not drawn) [Example 48, 5-(3-dimethylamino-1-butyloxy]-2-chloro-methylpyridine p-toluenesulfonic acid] | – | Ki [1, 3]: 1.3 nM
Cc1cc(OCCC(C)N)cnc1Cl (stereo not drawn) [Example 49, 5-(3-Amino-1-butyloxy)-2-chloro-3-methyl-pyridine p-toluenesulfonic acid] | – | Ki [1, 3]: 25 nM
